Data taken from ChEMBL document CHEMBL1137579, “Discovery of 1-[2-[(1S)-(3-dimethylaminopropionyl)amino-2-methylpropyl]-4-methylphenyl]-4-[(2R)-methyl-3-(4-chlorophenyl)-propionyl]piperazine as an orally active antagonist of the melanocortin-4 receptor for the potential treatment of cachexia” (J Med Chem, 2007).

Legend:
[1] = target: Melanocortin receptor 4 (Homo sapiens) (UniProt P32245); assay: Activity at MC4R expressed in HEK293 cells assessed as stimulation of cAMP release at 10 uM relative to alpha-MSH; format: functional, cell-based
Cytochrome P450 3A4 = Cytochrome P450 3A4 (Homo sapiens, UniProt P08684); assay: Inhibition of CYP3A4; format: ADME
Caco-2 = assay: Permeability across Caco-2 cell membrane; format: ADME, cell-based; details: human
[2] = Cmax in rat at 2.5 mg/kg, iv or 10 mg/kg, po; format: ADME, organism-based; details: in vivo
[3] = Drug level in rat brain at 10 mg/kg, po after 1 hr; format: ADME, organism-based; set-up: dose 10 mg/kg, route oral; details: read-out: Drug uptake
[4] = Oral bioavailability in rat at 10 mg/kg, po; format: ADME, organism-based; details: in vivo
[5] = Drug level in rat brain at 10 mg/kg, po after 4 hrs; format: ADME, organism-based; set-up: dose 10 mg/kg, route oral; details: read-out: Drug uptake
[6] = target: Melanocyte-stimulating hormone receptor (Homo sapiens) (UniProt Q01726); assay: Displacement of [125I]NDP-MSH from human MC1R
[7] = AUC in rat at 10 mg/kg, po; format: ADME, organism-based; set-up: dose 10 mg/kg, route oral; details: plasma
[8] = Tmax in rat at 2.5 mg/kg, iv or 10 mg/kg, po; format: ADME, organism-based; details: in vivo
[9] = Volume of distribution in rat at 2.5 mg/kg, iv or 10 mg/kg, po; format: ADME, organism-based; details: in vivo

Sequence of Melanocortin receptor 4 (Homo sapiens) (P32245 whole entry): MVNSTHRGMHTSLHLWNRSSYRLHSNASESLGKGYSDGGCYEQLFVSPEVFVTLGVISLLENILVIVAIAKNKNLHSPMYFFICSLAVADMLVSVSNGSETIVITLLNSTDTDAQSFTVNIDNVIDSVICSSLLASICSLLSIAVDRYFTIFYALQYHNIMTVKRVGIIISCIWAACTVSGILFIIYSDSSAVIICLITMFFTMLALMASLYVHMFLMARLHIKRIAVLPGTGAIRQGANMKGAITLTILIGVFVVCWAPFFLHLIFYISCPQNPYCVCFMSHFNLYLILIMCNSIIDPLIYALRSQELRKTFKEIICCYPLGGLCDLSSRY
Sequence of Melanocyte-stimulating hormone receptor (Homo sapiens) (Q01726 whole entry, looked up): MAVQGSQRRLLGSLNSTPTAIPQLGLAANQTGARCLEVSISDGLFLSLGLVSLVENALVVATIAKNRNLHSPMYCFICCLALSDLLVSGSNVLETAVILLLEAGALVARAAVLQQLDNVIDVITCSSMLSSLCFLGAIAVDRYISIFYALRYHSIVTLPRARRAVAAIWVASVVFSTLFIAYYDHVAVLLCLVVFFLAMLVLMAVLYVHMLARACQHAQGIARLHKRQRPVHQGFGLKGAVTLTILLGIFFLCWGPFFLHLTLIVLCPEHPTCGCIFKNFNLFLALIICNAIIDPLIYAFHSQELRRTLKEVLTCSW
Sequence of Cytochrome P450 3A4 (P08684 whole entry): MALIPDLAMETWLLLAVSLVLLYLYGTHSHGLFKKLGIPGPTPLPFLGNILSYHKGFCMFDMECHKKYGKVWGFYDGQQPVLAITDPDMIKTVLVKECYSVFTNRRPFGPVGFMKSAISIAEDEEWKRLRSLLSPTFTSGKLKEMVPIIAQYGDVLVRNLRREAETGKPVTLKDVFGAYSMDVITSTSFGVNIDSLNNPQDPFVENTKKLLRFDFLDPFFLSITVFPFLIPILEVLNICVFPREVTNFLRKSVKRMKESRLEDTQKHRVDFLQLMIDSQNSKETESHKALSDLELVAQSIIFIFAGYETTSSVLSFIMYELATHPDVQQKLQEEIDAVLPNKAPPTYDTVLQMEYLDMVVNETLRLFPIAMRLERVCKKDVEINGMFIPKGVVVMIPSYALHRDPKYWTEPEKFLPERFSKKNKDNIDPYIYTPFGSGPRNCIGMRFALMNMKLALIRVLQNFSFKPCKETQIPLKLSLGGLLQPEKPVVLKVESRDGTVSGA

Row | Activity [1] | permeability (Caco-2) | Activity [6] | SMILES | also measured
1 | 2% |  |  | Cc1ccc(N2CCN(C(=O)[C@H](C)Cc3ccc(Cl)cc3C)CC2)c([C@@H](N)C(C)C)c1 | 
2 | 12% | 0.8 10^-6 cm/s |  | CNCC(=O)N[C@H](c1cc(C)ccc1N1CCN(C(=O)[C@H](C)Cc2ccc(Cl)cc2F)CC1)C(C)C | IC50 (Cytochrome P450 3A4): 6.9 µM
3 |  | 1.2 10^-6 cm/s | 43% | CNCCC(=O)N[C@H](c1cc(C)ccc1N1CCN(C(=O)[C@H](C)Cc2ccc(Cl)cc2)CC1)C(C)C | Cmax [2]: 0.057 µg/mL; concentration at 1 h [3]: < 5 ng/g; bioavailability [4]: 15%; concentration at 4 h [5]: < 5 ng/g; AUC [7]: 0.563 µg·h/mL; Tmax [8]: 3.3 h; Vd [9]: 20 L/kg
4 | 5% |  |  | Cc1ccc(N2CCN(C(=O)[C@H](C)Cc3ccc(Cl)cc3F)CC2)c([C@@H](N)C(C)C)c1 | 
5 |  | 0.3 10^-6 cm/s | 42% | Cc1ccc(N2CCN(C(=O)[C@H](C)Cc3ccc(Cl)cc3)CC2)c([C@@H](NC(=O)CCN)C(C)C)c1 | 
